What was measured:
[1] = Ultraviolet-visible absorption spectra of solutions of o-phthalaldehyde ultraviolet absorbers vs the parent carboxylic acids (FIG. 4); assay type: physicochemical; conditions: solution; for visible absorption introduced by the 3-(3,4-diformylphenyl)propyl moiety: compared with corresponding carboxylic acids
From the text: FIG. 4 is a set of graphs of the ultraviolet-visible absorption spectra of solutions of (a) 4-((3-(2H-benzo[d][1,2,3]triazol-2-yl)-2-hydroxy-5-methylbenzyl)oxy)phthalaldehyde, prepared according to the process described in example 3, and 3-(3-(benzotriazole-2-yl)-5-tert-butyl-4-hydroxyphenyl)propanoic acid, (b) 3-(3-(2H-benzo[d][1,2,3]triazol-2-yl)-5-(tert-butyl)-4-hydroxyphenyl)propanoate, prepared according to the process described in Example 4, and 2-(4-diethylamino-2-hydroxybenzoyl)benzoic acid, (c) 3-(3,4-diformylphenyl)propyl 3-(4-methoxyphenyl)acrylate, prepared according to the process described in example 5, and 4-methoxycinnamic acid.

[2] = system: stratum corneum of excised porcine skin; experiment: Semi-permanent retention of topical mark on excised porcine skin after repeated washing, and localization after bisection (FIG. 7); conditions: for retention of the mark on skin after washing: gel dried 10 minutes, washed after 3 hours, washing procedure repeated five times
From the text: FIG. 7 is a set of annotated visible and ultraviolet photographs of excised porcine skin areas exposed to the composition described in Example 8 according to the method of Example 10, labeled o-phthalaldehyde, accompanied by a positive control based on genipin and three negative controls based on a commercially available organic and mineral SPF-30 sunscreens and permanent black marker, taken before the skin was washed, then after one wash, after five washes, and after five washes and bisection.
20 mg of 3,6-dihydroxy-4,5-dimethyl-1,2-benzenedicarboxaldehyde was mixed directly into 230 mg of a gel comprising 79.715% v/v water, 20% v/v ethanol, and 0.285% v/v carbomer 940 and stirred mechanically until a homogenous gel was obtained.
Freshly excised porcine skin was allowed to hydrate in reverse-osmosis purified water for 4 h, then it was cut into rectangular samples and stored for 24 hours in a closed container on top of a paper towel saturated with a solution of 90% water and 10% glycerol. The stratum corneum was wiped with a cotton gauze pad saturated with an aqueous solution of lysine at a concentration of 2 wt %. The gel composition prepared as described in […] was scooped onto a spatula, which was used to apply a thin layer of the gel in a circle of approximately 1-cm diameter on the stratum corneum. After allowing the gel to dry on the skin for 10 minutes, the skin sample was returned to the closed container with the saturated paper towel to allow the skin to remain hydrate while the reaction continued to develop. After 3 hours, the skin was removed and washed liberally by scrubbing the skin with a loofah saturated with a soap solution of 10% alcanox in water until a foam lather was formed, rinsed with reverse-osmosis water, and wiped with a paper towel saturated with a 70% isopropanol solution, and finally patted dry with a paper towel. This washing procedure was repeated five times.

CC(C)(C)c1cc(CCC(=O)OCCCc2ccc(C=O)c(C=O)c2)cc(-n2nc3ccccc3n2)c1O [Example 3, 3-(3,4-diformylphenyl)propyl 3-(3-(2H-benzo[d][1,2,3]triazol-2-yl)-5-(tert-butyl)-4-hydroxyphenyl)propanoate]
alteration of the absorption profiles of the ultraviolet-absorbing moieties by the 3-(3,4-diformylphenyl)propyl moiety [1]: only minor alteration of the absorption profiles | visible absorption introduced by the 3-(3,4-diformylphenyl)propyl moiety [1]: without introducing substantial visible absorption

COc1ccc(C=CC(=O)OCCCc2ccc(C=O)c(C=O)c2)cc1 [Example 5, 3-(3,4-diformylphenyl)propyl 3-(4-methoxyphenyl)acrylate]
alteration of the absorption profiles of the ultraviolet-absorbing moieties by the 3-(3,4-diformylphenyl)propyl moiety [1]: only minor alteration of the absorption profiles | visible absorption introduced by the 3-(3,4-diformylphenyl)propyl moiety [1]: without introducing substantial visible absorption

CCN(CC)c1ccc(C(=O)c2ccccc2C(=O)OCCCc2ccc(C=O)c(C=O)c2)c(O)c1 [Example 4, 3-(3,4-diformylphenyl)propyl 2-(4-(diethylamino)-2-hydroxybenzoyl)benzoate]
alteration of the absorption profiles of the ultraviolet-absorbing moieties by the 3-(3,4-diformylphenyl)propyl moiety [1]: only minor alteration of the absorption profiles | visible absorption introduced by the 3-(3,4-diformylphenyl)propyl moiety [1]: without introducing substantial visible absorption

COC(=O)C1=CO[C@@H](O)[C@@H]2C(CO)=CC[C@H]12 [genipin, reference compound]
retention of the mark on skin after washing [2]: retained

Cc1c(C)c(O)c(C=O)c(C=O)c1O [3,6-dihydroxy-4,5-dimethyl-1,2-benzenedicarboxaldehyde]
localization / penetration in skin layers ([2]; excessively washed, bisected through to the subcutis): localized in the stratum corneum and did not penetrate to lower epidermal or dermal layers of the skin | retention of the mark on skin after washing [2]: retained
